From patent US20170037028A1 (BAYER PHARMA AKTIENGESELLSCHAFT, priority 2013, published 2017) come the findings set out here.

Structures are written as SMILES. pIC50: −log10 of the molar value.

The first assay addresses T1, GLUT1 (Homo sapiens, UniProt P11166).
T1 sequence (P11166 1-492): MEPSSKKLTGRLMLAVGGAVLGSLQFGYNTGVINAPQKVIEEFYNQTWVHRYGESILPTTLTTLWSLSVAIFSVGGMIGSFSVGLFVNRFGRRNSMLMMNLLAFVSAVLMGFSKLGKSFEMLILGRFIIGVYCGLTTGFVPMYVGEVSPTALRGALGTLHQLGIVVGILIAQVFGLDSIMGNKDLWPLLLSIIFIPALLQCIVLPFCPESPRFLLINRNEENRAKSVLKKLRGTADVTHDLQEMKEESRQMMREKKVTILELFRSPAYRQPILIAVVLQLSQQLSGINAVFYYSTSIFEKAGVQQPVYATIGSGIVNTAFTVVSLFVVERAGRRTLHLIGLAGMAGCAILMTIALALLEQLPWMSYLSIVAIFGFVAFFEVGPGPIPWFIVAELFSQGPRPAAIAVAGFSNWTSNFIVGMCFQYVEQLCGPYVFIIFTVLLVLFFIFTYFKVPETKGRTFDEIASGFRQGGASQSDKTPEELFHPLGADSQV
In words: Indirect measurement of GLUT1 activity by quantification of intracellular ATP levels (glucose induced ATP increase). The settings on record: DLD1 cells; 0.1 mM glucose, 1 μM Rotenone, 15 min; CellTiter-Glo ATP readout; IC50 values standardized to cytochalasin B IC50 values; read-out: IC50 regarding glucose induced ATP increase (GLUT1 inhibition). It is filed as cell-based. Details: endogenous in cells; host or cells: DLD1 or CHO-K1. The essentials: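 Intracellular ATP was measured by CellTiter-Glo luminescence as an indirect readout of transport: glucose-driven for GLUT1, fructose-driven for GLUT2. DLD1 or CHO-K1 cells were used alongside an oxidative phosphorylation inhibitor. Beforehand, cells were held overnight in glucose-free 1% FCS medium to deplete ATP.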
For orientation: Cellular ATP, detected with luciferase, serves as a proxy for viable cell number.
Turning to `COc1ccc2nc(C(N)=O)cc(C(=O)Nc3c(C(F)(F)F)nn(Cc4ccc(C#N)cc4)c3C)c2c1` [Example 245, N^4-[1-(4-cyanobenzyl)-5-methyl-3-(trifluoromethyl)-1H-pyrazol-4-yl]-6-methoxyquinoline-2,4-dicarboxamide], the pIC50 is 9.52.

The assay is the same for the next values; noted with them: read-out: IC50 regarding glucose induced ATP increase (GLUT1 inhibition).
For `Cc1cccc(CNC(=O)c2ccc(Cn3nc(C)c(NC(=O)c4cc(C(F)(F)F)nc5ccc(Br)cc45)c3C)cc2)c1` [Example 1190], the pIC50 is 6.51.
Still for that read-out and setting: to `Cc1nn(Cc2ccc(F)c(F)c2)c(C)c1NC(=O)c1cc(C(F)(F)F)nc2ccc(F)cc12` [Example 174, N-[1-(3,4-difluorobenzyl)-3,5-dimethyl-1H-pyrazol-4-yl]-6-fluoro-2-(trifluoromethyl)quinoline-4-carboxamide] belongs 7.16; to `Cc1nn(Cc2ccc(C(=O)N[C@@H](C)CO)cc2)c(C)c1NC(=O)c1cc(C(F)(F)F)nc2ccc(Br)cc12` [Example 1101], 7.37; to `Cc1c(NC(=O)c2cc(C(N)=O)nc3cc(F)ccc23)c(C(F)(F)F)nn1C(C)c1ccccc1` (single isomer, unassigned) [Example 379, (R or S)-7-fluoro-N^4-[5-methyl-1-(1-phenylethyl)-3-(trifluoromethyl)-1H-pyrazol-4-yl]quinoline-2,4-dicarboxamide], 6.06.
As to `Cc1c(NC(=O)c2cc(C(N)=O)nc3ccccc23)c(C(F)(F)F)nn1Cc1cc(CN2CCOCC2)on1` [Example 1702], the pIC50 is 6.85.
Same read-out and setting: the figure for `Cc1nn(Cc2ccc(C(C)(C)C)cc2)c(C)c1NC(=O)c1cc(C(N)=O)nc2ccccc12` [Example 1369] is 6.84; for `COc1ccc(Cn2nc(C(F)(F)F)c(NC(=O)c3cc(OC)nc4ccccc34)c2C)cc1` [Example 1089] it is 7.45.
Still for that read-out and setting: to `Cc1c(NC(=O)c2cc(C(N)=O)nc3cccc(F)c23)c(C(F)(F)F)nn1Cc1ccc(C2CCC2)cc1` [Example 1618] belongs 7.65; to `Cc1nn(Cc2ccc(F)cc2)c(C)c1NC(=O)c1cc(C(N)=O)nc2cc(F)c(F)cc12` [Example 120, 6,7-difluoro-N^4-[1-(4-fluorobenzyl)-3,5-dimethyl-1H-pyrazol-4-yl]quinoline-2,4-dicarboxamide], 8.82.
On the same count and under the same terms, to `Cc1nn(Cc2ccncn2)c(C)c1NC(=O)c1cc(C(F)(F)F)nc2ccc(Br)cc12` [Example 1416] belongs 7.01; to `CNC(=O)Cc1ccc(Cn2nc(C)c(NC(=O)c3cc(C(F)(F)F)nc4ccc(Br)cc34)c2C)cc1` [Example 153, 6-bromo-N-(3,5-dimethyl-1-{4-[2-(methylamino)-2-oxoethyl]benzyl}-1H-pyrazol-4-yl)-2-(trifluoromethyl)quinoline-4-carboxamide], 7.02; to `Cc1nn(Cc2ccc(C#N)cc2)c(C)c1NC(=O)c1cc(C(=O)NCCN(C)C)nc2cc(F)ccc12` [Example 1401], 5.91.
On to `Cc1c(NC(=O)c2cc(C(N)=O)nc3cc(F)c(Cl)cc23)c(C(F)(F)F)nn1Cc1cc(C(C)C)no1` [Example 1554], for which the pIC50 was 6.94.
The same measure, in the same setting: the figure for `Cc1nn(Cc2ccc(C(=O)N3CCC(O)CC3)cc2)c(C)c1NC(=O)c1cc(C(F)(F)F)nc2ccc(Br)cc12` [Example 1217] is 6.17; for `Cc1nn(C(C)c2ccc(C#N)cc2)c(C)c1NC(=O)c1cc(C(N)=O)nc2c(F)cccc12` (racemic) [Example 331, (±)-N^4-{1-[1-(4-cyanophenyl)ethyl]-3,5-dimethyl-1H-pyrazol-4-yl}-8-fluoroquinoline-2,4-dicarboxamide] it is 8.60.
Same read-out and setting: the figure for `Cc1nn(Cc2ccc(F)cc2)c(C(=O)NCCO)c1NC(=O)c1cc(C(F)(F)F)nc2ccc(Br)cc12` [Example 1219] is 6.15; for `Cc1c(NC(=O)c2cc(C(N)=O)nc3ccccc23)c(C(F)(F)F)nn1Cc1cc(C2CC2)on1` [Example 1549] it is 7.87; for `Cc1nn(Cc2ccc(C(=O)NCc3cccc(O)c3)cc2)c(C)c1NC(=O)c1cc(C(F)(F)F)nc2ccc(Br)cc12` [Example 1209] it is 6.30.

For orientation: pIC50 means the negative decadic logarithm of the IC50, by convention in mol/L.
